US10370402B2, “Process for the preparation of fluticasone propionate form 1” (Pfizer Limited, priority 2011, dated 2019)

Experiments:
[1] = Particle size distribution of recrystallised fluticasone propionate by laser diffraction (Malvern Mastersizer 2000); format: physicochemical; details: for D[v, 0.1]: 10th percentile volume diameter; for D[v, 0.1] / D[v, 0.5] / D[v, 0.9]: recrystallised batch, before micronisation; for D[v, 0.5]: 50th percentile (median) volume diameter; for D[v, 0.9]: 90th percentile volume diameter; for Ingoing particle size D[v, 0.5]: before micronisation (Table 3)
Description: The particle size distribution was measured on the Malvern Mastersizer 2000 laser diffraction system equipped with a Hydro 2000S liquid dispersion unit and flow cell. The sample was prepared by adding 15 drops of Tween 80 to crystallised fluticasone propionate within the glass 4 dram vial and mixing into a paste using a spatula, until all of the powder is wetted out and a smooth, uniform paste is achieved. Then the paste is added to the Hydro 2000S containing dispersant (0.1% Tween 80 in deionised water) using a spatula. When the obscuration target is achieved (20%±5%) the sample is left to stir within the Hydro 2000S for 1 minute to allow the particles to wet out, disperse and ensure a stable obscuration is achieved. Measurement is initiated after 1 minute of stirring.
The particle size data expressed as D[v, 0.1], D[v, 0.5] and D[v, 0.9] obtained from examples 2-9 are summarized below in Table 2. D[v, 0.1], D[v, 0.5] and D[v, 0.9] represent the 10th percentile volume diameter; 50th percentile volume diameter; and 90th percentile volume diameter respectively. In general the n^th percentile volume diameter is defined so that n % of the particles have a volume equivalent particle diameter smaller than or equal to the n^th percentile diameter. In the case of D[v, 0.5], it coincides with the median value.

[2] = Particle size distribution of micronised fluticasone propionate by laser diffraction (Sympatec HELOS); format: physicochemical; details: after jet milling, JetPharma MC150, feed 15 g/min, mill pressure 3.5 bar, venturi 5.5 bar
Description: The particle size distribution was measured on the Sympatec HELOS laser diffraction system (with R1 optical module giving a measuring range of 0.1/0.18-35 μm) together with SUCELL dispersing module. 100 mg of micronised sample is weighed into a 4-dram vial and 15 drops (approximately 0.5 mL) of Tween 80 is added from a 3 ml wide-tipped pipette to the powder. The mixture is then carefully stirred into a paste until all the particles are wetted out and a uniform smooth mixture is achieved. Then the paste is added to the SUCELL containing dispersant (0.025% Tween 80 in deionised water) using a spatula. Once the optical concentration target is achieved (10-15%) then a measurement is taken.
Particles were micronized using a JetPharma MC150 (6 inch spiral jet mill) using the following conditions: • Feed rate: 15 g/min • Mill pressure: 3.5 bar • Venturi Pressure: 5.5 bar • Micronisation scale: 0.5 Kg.

Row | Compound | D[v, 0.1] [1] [μm] | D[v, 0.5] [1] [μm] | D[v, 0.9] [1] [μm] | Ingoing particle size D[v, 0.5] [1] [μm] | Post-micronisation particle size D[v, 0.5] [2] [μm]
1 | CCC(=O)O[C@]1(C(=O)SCF)[C@H](C)C[C@H]2[C@@H]3C[C@H](F)C4=CC(=O)C=C[C@]4(C)[C@@]3(F)[C@@H](O)C[C@@]21C [Example 2, S-(fluoromethyl)-6α,9-difluoro-11β-17-dihydroxy-16α-methyl-3-oxoandrosta-1,4-diene-17β-carbothioate, 17-propionate] | 2.5 | 6.7 | 15.7 | – | –
2 | CCC(=O)O[C@]1(C(=O)SCF)[C@H](C)C[C@H]2[C@@H]3C[C@H](F)C4=CC(=O)C=C[C@]4(C)[C@@]3(F)[C@@H](O)C[C@@]21C [Example 3, S-(fluoromethyl)-6α,9-difluoro-11β-17-dihydroxy-16α-methyl-3-oxoandrosta-1,4-diene-17β-carbothioate, 17-propionate] | 2.1 | 5.1 | 11.357 | – | –
3 | CCC(=O)O[C@]1(C(=O)SCF)[C@H](C)C[C@H]2[C@@H]3C[C@H](F)C4=CC(=O)C=C[C@]4(C)[C@@]3(F)[C@@H](O)C[C@@]21C [Example 4, S-(fluoromethyl)-6α,9-difluoro-11β-17-dihydroxy-16α-methyl-3-oxoandrosta-1,4-diene-17β-carbothioate, 17-propionate] | 15.4 | 55.1 | 135.9 | – | –
4 | CCC(=O)O[C@]1(C(=O)SCF)[C@H](C)C[C@H]2[C@@H]3C[C@H](F)C4=CC(=O)C=C[C@]4(C)[C@@]3(F)[C@@H](O)C[C@@]21C [Example 5, S-(fluoromethyl)-6α,9-difluoro-11β-17-dihydroxy-16α-methyl-3-oxoandrosta-1,4-diene-17β-carbothioate, 17-propionate] | 2.1 | 5.9 | 15.2 | – | –
5 | CCC(=O)O[C@]1(C(=O)SCF)[C@H](C)C[C@H]2[C@@H]3C[C@H](F)C4=CC(=O)C=C[C@]4(C)[C@@]3(F)[C@@H](O)C[C@@]21C [Example 6, S-(fluoromethyl)-6α,9-difluoro-11β-17-dihydroxy-16α-methyl-3-oxoandrosta-1,4-diene-17β-carbothioate, 17-propionate] | 2.0 | 5.3 | 12.4 | – | –
6 | CCC(=O)O[C@]1(C(=O)SCF)[C@H](C)C[C@H]2[C@@H]3C[C@H](F)C4=CC(=O)C=C[C@]4(C)[C@@]3(F)[C@@H](O)C[C@@]21C [Example 7, S-(fluoromethyl)-6α,9-difluoro-11β-17-dihydroxy-16α-25 methyl-3-oxoandrosta-1,4-diene-17β-carbothioate, 17-propionate] | 3.4 | 11.4 | 32.1 | – | –
7 | CCC(=O)O[C@]1(C(=O)SCF)[C@H](C)C[C@H]2[C@@H]3C[C@H](F)C4=CC(=O)C=C[C@]4(C)[C@@]3(F)[C@@H](O)C[C@@]21C [Example 8, S-(fluoromethyl)-6α,9-difluoro-11β-17-dihydroxy-16α-methyl-3-oxoandrosta-1,4-diene-17β-carbothioate, 17-propionate] | 1.3 | 2.8 | 5.6 | 2.8 | 2.3
8 | CCC(=O)O[C@]1(C(=O)SCF)[C@H](C)C[C@H]2[C@@H]3C[C@H](F)C4=CC(=O)C=C[C@]4(C)[C@@]3(F)[C@@H](O)C[C@@]21C [Example 9, S-(fluoromethyl)-6α,9-difluoro-11β-17-dihydroxy-16α-methyl-3-oxoandrosta-1,4-diene-17β-carbothioate, 17-propionate] | 6.2 | 22.5 | 53.4 | 22.5 | 4.0
